{"source": "patent US6900219B2", "about": "“ABCA-1 elevating compounds” (CV Therapeutics, Inc., priority 2002, dated 2005)"}
{"tested_on": "ABCA-1 gene", "assay": "compounds tested and found to elevate cellular expression of the ABCA-1 gene (Examples 1-6; test not named)", "type": "cell-based", "experimental": "Activity testing is conducted as described in those patents and patent applications referenced above, and in the Examples below, and by methods apparent to one skilled in the art."}
{"molecule": "CC(C)CN(C(=O)Nc1cccc2ccccc12)C(C)c1nc2ccccc2c(=O)n1-c1ccc2ccccc2c1", "note": "(stereo not shown) [N-(2-methylpropyl)(naphthylamino)-N-[(3-(2-naphthyl)-4-oxo(3-hydroquinazolin-2-yl))ethyl]carboxamide]", "cellular expression of the ABCA-1 gene": "elevate cellular expression of the ABCA-1 gene"}
{"molecule": "O=C(NCC1CCCCC1)Nc1ccc2c(c1)CCC2", "note": "[[(cyclohexylmethyl)amino]-N-indan-5-ylcarboxamide]", "cellular expression of the ABCA-1 gene": "elevate cellular expression of the ABCA-1 gene"}
{"molecule": "O=C(Nc1nc(-c2ccc(Cl)cc2)cs1)c1ccc(-c2ccccc2)cc1", "note": "[N-[4-(4-chlorophenyl)(1,3-thiazol-2-yl)](4-phenylphenyl)carboxamide]", "cellular expression of the ABCA-1 gene": "elevate cellular expression of the ABCA-1 gene"}
{"molecule": "(3-chlorobenzo[b]thiophen-2-yl)-N-(ethynylcyclohexyl)carboxamide", "cellular expression of the ABCA-1 gene": "elevate cellular expression of the ABCA-1 gene"}
{"molecule": "Nc1nc(-c2ccc(Cl)cc2)nc2sc3c(c12)CCCCC3", "note": "[2-(4-chlorophenyl)-5,6,7,8,9-pentahydrocyclohepta[1,2-b]pyrimidino[5,4-d]thiophene-4-ylamine]", "cellular expression of the ABCA-1 gene": "elevate cellular expression of the ABCA-1 gene"}
{"molecule": "CCc1c(C(=O)NCc2ccco2)cnn1-c1nc(-c2ccc(OC)cc2)cs1", "note": "[5-ethyl-1-[4-(4-methoxy-phenyl)-thiazol-2-yl]-1H-pyrazole-4-carboxylic acid (furan-2-ylmethyl)-amide]", "cellular expression of the ABCA-1 gene": "elevate cellular expression of the ABCA-1 gene"}
{"molecule": "CCCCCc1ccc(NC(=O)NC2=NCCS2)cc1", "note": "[[(4-pentylphenyl)amino]-N-(1,3-thiazolin-2-yl)carboxamide]", "cellular expression of the ABCA-1 gene": "elevate cellular expression of the ABCA-1 gene"}
{"molecule": "O=C(Nc1ccc(Cl)cc1)c1sc2ccccc2c1Cl", "note": "[(3-chlorobenzo[b]thiophen-2-yl)-N-(4-chlorophenyl)carboxamide]", "cellular expression of the ABCA-1 gene": "elevate cellular expression of the ABCA-1 gene"}
{"molecule": "CCC(c1nc2ccccc2c(=O)n1-c1ccc(C)c(C)c1)N(CCOC)C(=O)Nc1ccc(Cl)cc1", "note": "(stereo not shown) [N-{[3-(3,4-dimethylphenyl)-4-oxo(3-hydroquinazolin-2-yl)]propyl}[(4-chlorophenyl)amino]-N-(2-methoxyethyl)carboxamide]", "cellular expression of the ABCA-1 gene": "elevate cellular expression of the ABCA-1 gene"}
{"molecule": "O=C(Nc1ccc2c(c1)CCC2)c1cccs1", "note": "[N-indan-5-yl-2-thienylcarboxamide]", "cellular expression of the ABCA-1 gene": "elevate cellular expression of the ABCA-1 gene"}
{"molecule": "CC(C)(C)c1ccc(-c2nc3cccc(F)c3c(=O)o2)cc1", "note": "[2-[4-(tert-butyl)phenyl]-5-fluorobenzo[d]1,3-oxazin-4-one]", "cellular expression of the ABCA-1 gene": "elevate cellular expression of the ABCA-1 gene"}
{"molecule": "O=C1CSC(NC(=O)c2ccc(F)cc2)=N1", "note": "[(4-fluorophenyl)-N-(4-oxo(1,3-thiazolin-2-yl))carboxamide]", "cellular expression of the ABCA-1 gene": "elevate cellular expression of the ABCA-1 gene"}
{"molecule": "O=C(Nc1nc(-c2ccc3ccccc3c2)cs1)c1ccc(OC(F)(F)F)cc1", "note": "[N-(4-(2-naphthyl)(1,3-thiazol-2-yl))[4-(trifluoromethoxy)phenyl]carboxamide]", "cellular expression of the ABCA-1 gene": "elevate cellular expression of the ABCA-1 gene"}
{"molecule": "Cc1c(Nc2nc(-c3ccc4ccccc4c3)cs2)cccc1C(=O)O", "note": "[2-methyl-3-[(4-(2-naphthyl)(1,3-thiazol-2-yl))amino]benzoic acid]", "cellular expression of the ABCA-1 gene": "elevate cellular expression of the ABCA-1 gene"}
{"molecule": "CCOc1ccc(-n2c(C(C)N3CCN(C(=O)Nc4ccc(OC)cc4OC)CC3)nc3ccccc3c2=O)cc1", "note": "(stereo not shown) [4-{1-[3-(4-ethoxyphenyl)-4-oxo-3,4-dihydro-quinazolin-2-yl]-ethyl}-piperazine-1-carboxylic acid (2,4-dimethoxy-phenyl)-amide]", "cellular expression of the ABCA-1 gene": "elevate cellular expression of the ABCA-1 gene"}
{"molecule": "CCCCNC(=O)c1cnn(-c2nc(-c3ccc(C)cc3)cs2)c1C", "note": "[{5-methyl-1-[4-(4-methylphenyl)(1,3-thiazol-2-yl)]pyrazol-4-yl}-N-butylcarboxamide]", "cellular expression of the ABCA-1 gene": "elevate cellular expression of the ABCA-1 gene"}
